Laboratory results reported in the supplement of paper PMC10307832.

Assays:
Assay in all cases: relative viability (nuclei count vs DMSO), 5 days (fraction); higher = more cells survive
Selisistat + Bortezomib = compound: C1CC(C2=C(C1)C3=C(N2)C=CC(=C3)Cl)C(=O)N [Selisistat] + CC(C)C[C@H](NC(=O)[C@H](Cc1ccccc1)NC(=O)c1cnccn1)B(O)O [Bortezomib] (partner 0.002 µM)
Summary of the method: (§1)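 The day after seeding in 1536-well plates, lung cancer cell lines were treated by pin tool with a single drug, or with a fixed anchor-drug dose together with five library-drug doses (not always all listed) in √10 steps. After 5 days, a combined fix-and-stain solution (final 0.05% Triton X-100, 1% formaldehyde, 1 ug/ml Hoechst) was added. Nuclei counted on 4× images gave relative viability as treated counts over vehicle counts, reported as the median of duplicate plates.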

Selisistat + Vorinostat = compound: C1CC(C2=C(C1)C3=C(N2)C=CC(=C3)Cl)C(=O)N [Selisistat] + O=C(CCCCCCC(=O)Nc1ccccc1)NO [Vorinostat] (partner 1 µM)
Summary of the method: as §1

Serdemetan + Phenformin = compound: c1ccc2c(CCNc3ccc(Nc4ccncc4)cc3)c[nH]c2c1 [Serdemetan] + N=C(N)NC(=N)NCCc1ccccc1 [Phenformin] (partner 250 µM)
Summary of the method: as §1

Serdemetan + AZD7762 = compound: c1ccc2c(CCNc3ccc(Nc4ccncc4)cc3)c[nH]c2c1 [Serdemetan] + NC(=O)Nc1cc(-c2cccc(F)c2)sc1C(=O)N[C@H]1CCCNC1 [AZD7762] (partner 0.2 µM)
Summary of the method: as §1

| Cell Line | relative viability (Selisistat + Bortezomib; first compound 0.4 µM) | relative viability (Selisistat + Bortezomib; first compound 1.265 µM) | relative viability (Selisistat + Bortezomib; first compound 4 µM) | relative viability (Selisistat + Bortezomib; first compound 12.65 µM) | relative viability (Selisistat + Bortezomib; first compound 40 µM) | relative viability (Selisistat + Vorinostat; first compound 0.4 µM) | relative viability (Selisistat + Vorinostat; first compound 1.265 µM) | relative viability (Selisistat + Vorinostat; first compound 4 µM) | relative viability (Selisistat + Vorinostat; first compound 12.65 µM) | relative viability (Selisistat + Vorinostat; first compound 40 µM) | relative viability (Serdemetan + Phenformin; first compound 0.04 µM) | relative viability (Serdemetan + Phenformin; first compound 0.1265 µM) | relative viability (Serdemetan + Phenformin; first compound 0.4 µM) | relative viability (Serdemetan + Phenformin; first compound 1.265 µM) | relative viability (Serdemetan + Phenformin; first compound 4 µM) | relative viability (Serdemetan + AZD7762; first compound 0.04 µM) | relative viability (Serdemetan + AZD7762; first compound 0.1265 µM) | relative viability (Serdemetan + AZD7762; first compound 0.4 µM) | relative viability (Serdemetan + AZD7762; first compound 1.265 µM) | relative viability (Serdemetan + AZD7762; first compound 4 µM) |
| --- | --- | --- | --- | --- | --- | --- | --- | --- | --- | --- | --- | --- | --- | --- | --- | --- | --- | --- | --- | --- |
| NCI-H596 | 1.01 | 0.105 | 0.817 | 0.947 | 1 | 0.698 | 0.609 | 0.521 | 0.75 | 0.773 | 0.812 | 0.692 | 0.735 | 0.63 | 0.438 | 1.17 | 1.19 | 1.08 | 0.922 | 1.16 |
| NCI-H322M | 1.36 | 1.25 |  | 1.42 | 1.39 | 0.857 | 0.921 |  | 0.893 | 1.02 | 0.667 | 0.788 | 0.774 | 0.718 | 0.706 | 0.565 | 0.573 | 0.533 | 0.524 | 0.43 |
| NCI-H647 | 0.95 | 0.987 |  | 0.885 | 1.16 | 0.567 | 0.604 | 0.777 | 0.639 | 0.766 | 0.583 | 0.669 | 0.511 | 0.288 | 0.335 | 0.556 | 0.382 | 0.396 | 0.41 | 0.285 |
| NCI-H2085 | 1.07 | 1.14 | 0.95 | 1.17 | 1.02 | 0.908 | 0.855 | 0.714 | 0.828 | 0.84 | 0.778 | 0.762 | 0.634 | 0.571 | 0.424 | 0.995 | 0.916 | 0.974 | 0.801 | 0.792 |
| NCI-H727 | 1.01 | 0.623 |  |  | 0.864 | 1.31 | 1.15 | 0.658 | 1.2 | 1.16 | 0.592 | 0.558 | 0.642 | 0.288 | 0.418 | 0.562 | 0.437 | 0.526 | 0.443 | 0.481 |
| NCI-H441 | 0.74 | 0.588 |  | 0.467 | 0.482 | 0.851 | 0.723 | 0.805 | 0.666 | 1 | 0.793 | 0.917 | 0.791 | 0.709 | 0.517 | 1.28 | 1.19 | 1.05 | 0.858 | 0.548 |
| LOU-NH91 | 0.499 | 0.505 | 0.448 | 0.511 | 0.515 | 0.962 | 0.919 | 0.824 | 0.835 | 0.959 | 0.699 | 0.733 | 0.478 | 0.669 | 0.665 | 0.768 | 0.746 |  |  | 0.79 |
| NCI-H3122 | 1 | 1 | 0.837 | 1.1 | 0.995 | 0.977 | 0.919 |  | 1.09 | 1.34 | 0.302 | 0.363 | 0.352 | 0.236 | 0.311 | 1 | 0.975 | 1.03 | 0.929 | 0.71 |
| NCI-H460 | 1.04 | 1.14 |  | 1.02 | 1.12 | 0.691 | 0.772 | 0.808 | 0.723 | 0.807 | 0.47 | 0.505 | 0.446 | 0.145 | 0.09 | 0.461 | 0.547 | 0.571 | 0.229 | 0.141 |
